Experimental findings from patent publication US4929612A, “Thiadiazolylacetamide cephem derivatives” (Eisai Co., Ltd., priority 1987, dated 1990) are described below.

Each structure is given as a SMILES string. In brackets after ≈: the same amount, converted by molar mass. Where two headings read alike, the source gives them in different places.

In data set [1] the test system is Morganella morganii EP-14. Description: anti-bacterial activity, MIC, Morganella morganii EP-14. The data set is classed as cell-based. As to conditions: EP14, inoculum size 10^6 CFU/ml. The source says:
(§1) Test bacterium MIC (μg/ml) Inoculum size 10^6 CFU/ml

Data set [2] has as its system Kleb. pneumoniae EK-6. Briefly: anti-bacterial activity, MIC, Kleb. pneumoniae EK-6. The following applies: Klebsiella pneumoniae, EK6. The class given is cell-based.
Source text: as §1

The subject of data set [3] is Ser. marcescens ES-75. Briefly: anti-bacterial activity, MIC, Ser. marcescens ES-75. The following applies: Serratia marcescens, ES75. The data set is classed as cell-based.
Source text: as §1

Data set [4] relates to Staph. aureus 209-P. Description: anti-bacterial activity, MIC, Staph. aureus 209-P. As to conditions: Staphylococcus aureus, inoculum size 10^6 CFU/ml. The data set is classed as cell-based.
Source text: as §1

Data set [5] relates to Escher. coli NIHJ. Description: anti-bacterial activity, MIC, Escher. coli NIHJ. The data set is classed as cell-based. As to conditions: Escherichia coli, inoculum size 10^6 CFU/ml.
Source text: as §1

The subject of data set [6] is Pseud. aeruginosa EP-01. Description: anti-bacterial activity, MIC, Pseud. aeruginosa EP-01. The data set is classed as cell-based. As to conditions: Pseudomonas aeruginosa, EP01, inoculum size 10^6 CFU/ml.
Source text: as §1

Data set [7] in a line: Acute toxicity, LD50 (mouse, intravenous injection). The following applies: in vivo. From the text:
Acute toxicity [LD50 (mouse, intravenous injection)] of the following compounds was more than 3 g/kg, respectively.

[8] abbreviates: Kleb. pneumoniae EK-6, inoculum size 10^6 CFU/ml, read-out: MIC.
The mark [9] stands for this setting: Ser. marcescens ES-75, inoculum size 10^6 CFU/ml, read-out: MIC.

In the case of `Nc1nc(/C(=N/OCF)C(=O)N[C@@H]2C(=O)N3C(C(=O)[O-])=C(C[n+]4cccn4CCO)CS[C@H]23)ns1` [Example 9, 7β-[2-(5-Amino-1,2,4-thiadiazol-3-yl)-(Z)-2-fluoromethoxyiminoacetamido]-3-[2-(2-hydroxyethyl)-1-pyrazolio]methyl-3-cephem-4-carboxylate], the MIC in data set [1] worked out at 0.05 µg/mL (≈ 0.095 µM); in data set [2] (setting [8]), 0.05 µg/mL (≈ 0.095 µM); in data set [3] (setting [9]), 0.05 µg/mL (≈ 0.095 µM); in data set [4], 0.4 µg/mL (≈ 0.76 µM); in data set [5], 0.05 µg/mL (≈ 0.095 µM); in data set [6], 0.8 µg/mL (≈ 1.52 µM).

As to `Nc1nc(/C(=N/OCF)C(=O)N[C@@H]2C(=O)N3C(C(=O)[O-])=C(C[N+]45CCC(O)(CC4)C5)CS[C@H]23)ns1` [Example 3, 7β-[2-(5-Amino-1,2,4-thiadiazol-3-yl)-(Z)-2-fluoromethoxyiminoacetamido]-3-(4-hydroxy-1,4-methylene-1-piperidinio)methyl-3-cephem-4-carboxylate], the MIC is 0.05 µg/mL (≈ 0.0948 µM) in data set [1]; 0.1 µg/mL (≈ 0.19 µM) in data set [2]; 0.1 µg/mL (≈ 0.19 µM) in data set [3] (setting [9]); 0.4 µg/mL (≈ 0.758 µM) in data set [4]; 0.05 µg/mL (≈ 0.0948 µM) in data set [5]; 0.8 µg/mL (≈ 1.52 µM) in data set [6]. The LD50 in data set [7] is greater than 3000 mg/kg.

Take `NC(=O)C12CC[N+](CC3=C(C(=O)[O-])N4C(=O)[C@@H](NC(=O)/C(=N\OCF)c5nsc(N)n5)[C@H]4SC3)(CC1)CC2` [Example 1, 7β-[2-(5-Amino-1,2,4-thiadiazol-3-yl)-(Z)-2-fluoromethoxyiminoacetamido]-3-(4-carbamoyl-1-quinuclidinio)methyl-3-cephem-4-carboxylate]: the MIC in data set [1] was determined as 0.05 µg/mL (≈ 0.0879 µM); in data set [2] (setting [8]), 0.05 µg/mL (≈ 0.0879 µM); in data set [3] (setting [9]) it was 0.1 µg/mL (≈ 0.176 µM); in data set [4], 1.56 µg/mL (≈ 2.74 µM); in data set [5], 0.05 µg/mL (≈ 0.0879 µM); in data set [6], 0.4 µg/mL (≈ 0.703 µM). In data set [7], this compound had an LD50 greater than 3000 mg/kg.

Take `Nc1nc(/C(=N/OCF)C(=O)N[C@@H]2C(=O)N3C(C(=O)[O-])=C(C[N+](CCO)(CCO)CCO)CS[C@H]23)ns1` [Example 7, 7β-[2-(5-Amino-1,2,4-thiadiazol-3-yl)-(Z)-2-fluoromethoxyiminoacetamido]-3-[tris(2-hydroxyethyl)ammonio]methyl-3-cephem-4-carboxylate]: the MIC in data set [1] turned out to be 0.1 µg/mL (≈ 0.177 µM); in data set [2] (setting [8]), 0.1 µg/mL (≈ 0.177 µM); in data set [3] (setting [9]), 0.4 µg/mL (≈ 0.71 µM); in data set [4] it was 6.25 µg/mL (≈ 11.1 µM); in data set [5], 0.1 µg/mL (≈ 0.177 µM); in data set [6], 3.13 µg/mL (≈ 5.55 µM).

For the compound `Nc1nc(/C(=N/OCF)C(=O)N[C@@H]2C(=O)N3C(C(=O)[O-])=C(C[n+]4ccc5n4CCOC5)CS[C@H]23)ns1` [Example 8, 7β-[2-(5-Amino-1,2,4-thiadiazol-3-yl)-(Z)-2-fluoromethoxyiminoacetamido]-3-[1-morpholino-[4,3-b]pyrazolio]methyl-3-cephem-4-carboxylate], the MIC in data set [1] was 0.05 µg/mL (≈ 0.0928 µM); in data set [2] (setting [8]), 0.05 µg/mL (≈ 0.0928 µM); in data set [3] (setting [9]), 0.05 µg/mL (≈ 0.0928 µM); in data set [4], 0.4 µg/mL (≈ 0.743 µM); in data set [5], no more than 0.025 µg/mL; in data set [6], 0.8 µg/mL (≈ 1.49 µM).

Turning to `Nc1nc(/C(=N/OCF)C(=O)N[C@@H]2C(=O)N3C(C(=O)[O-])=C(C[N+]45CCC(CO)(CC4)CC5)CS[C@H]23)ns1` [Example 11, 7β-[2-(5-Amino-1,2,4-thiadiazol-3-yl)-(Z)-2-fluoromethoxyiminoacetamido]-3-(4-hydroxylmethyl-1-quinuclidinio)methyl-3-cephem-4-carboxylate], the MIC in data set [1] is no more than 0.025 µg/mL; in data set [2] (setting [8]), no more than 0.025 µg/mL; in data set [3] (setting [9]), 0.1 µg/mL (≈ 0.18 µM); in data set [4], 0.8 µg/mL (≈ 1.44 µM); in data set [5], no more than 0.025 µg/mL; in data set [6], 0.4 µg/mL (≈ 0.72 µM). Also, the LD50 in data set [7] is greater than 3000 mg/kg.

As for `Nc1nc(/C(=N/OCF)C(=O)N[C@@H]2C(=O)N3C(C(=O)[O-])=C(C[n+]4ccc5n4CCCC5)CS[C@H]23)ns1` [Example 10, 7β-[2-(5-Amino-1,2,4-thiadiazol-3-yl)-(Z)-2-fluoromethoxyiminoacetamido]-3-[1-(2,3-tetramethylene)pyrazolio]methyl-3-cephem-4-carboxylate], the MIC is 0.05 µg/mL (≈ 0.0932 µM) in data set [1]; no more than 0.025 µg/mL in data set [2] (setting [8]); 0.05 µg/mL (≈ 0.0932 µM) in data set [3] (setting [9]); 0.4 µg/mL (≈ 0.745 µM) in data set [4]; no more than 0.025 µg/mL in data set [5]; 0.8 µg/mL (≈ 1.49 µM) in data set [6].

Regarding `CC12CC[N+](CC3=C(C(=O)[O-])N4C(=O)[C@@H](NC(=O)/C(=N\OCF)c5nsc(N)n5)[C@H]4SC3)(CC1)CC2` [Example 2, 7β-[2-(5-Amino-1,2,4-thiadiazol-3-yl)-(Z)-2-fluoromethoxyiminoacetamido]-3-(4-methyl-1-quinuclidinio)methyl-3-cephem-4-carboxylate], the MIC is 0.1 µg/mL (≈ 0.185 µM) in data set [1]; 0.05 µg/mL (≈ 0.0927 µM) in data set [2] (setting [8]); 0.1 µg/mL (≈ 0.185 µM) in data set [3]; 0.8 µg/mL (≈ 1.48 µM) in data set [4]; 0.05 µg/mL (≈ 0.0927 µM) in data set [5]; 0.8 µg/mL (≈ 1.48 µM) in data set [6].

With `C[N+]1(CC2=C(C(=O)[O-])N3C(=O)[C@@H](NC(=O)/C(=N\OCF)c4nsc(N)n4)[C@H]3SC2)CC=C(C(N)=O)CC1` (stereo partly drawn) [Example 6, 7β-[2-(5-Amino-1,2,4-thiadiazol-3-yl)-(Z)-2-fluoromethoxyiminoacetamido]-3-(4-carbamoyl-1-methyl-1,2,3,6-tetrahydropyridinio)methyl-3-cephem-4-carboxylate], the MIC in data set [1] amounted to 0.05 µg/mL (≈ 0.0902 µM); in data set [2] (setting [8]) it was 0.05 µg/mL (≈ 0.0902 µM); in data set [3] (setting [9]) it was 0.1 µg/mL (≈ 0.18 µM); in data set [4], 1.56 µg/mL (≈ 2.81 µM); in data set [5], 0.05 µg/mL (≈ 0.0902 µM); in data set [6], 0.8 µg/mL (≈ 1.44 µM).

On to `C[N+](C)(CCC(N)=O)CC1=C(C(=O)[O-])N2C(=O)[C@@H](NC(=O)/C(=N\OCF)c3nsc(N)n3)[C@H]2SC1` [Example 5, 7β-[2-(5-Amino-1,2,4-thiadiazol-3-yl)-(Z)-2-fluoromethoxyiminoacetamido]-3-[N,N-dimethyl-N-(2-carbamoyl)ethylammonio]methyl-3-cephem-4-carboxylate], for which the MIC in data set [1] is 0.05 µg/mL (≈ 0.0942 µM); in data set [2] (setting [8]) it was no more than 0.025 µg/mL; in data set [3], 0.1 µg/mL (≈ 0.188 µM); in data set [4], 1.56 µg/mL (≈ 2.94 µM); in data set [5] it was no more than 0.025 µg/mL; in data set [6], 1.56 µg/mL (≈ 2.94 µM).

Take `C[N+]1(CC2=C(C(=O)[O-])N3C(=O)[C@@H](NC(=O)/C(=N\OCF)c4nsc(N)n4)[C@H]3SC2)CCCC1` [Example 4, 7β-[2-(5-Amino-1,2,4-thiadiazol-3-yl)-(Z)-2-fluoromethoxyiminoacetamido]-3-(1-methyl-1-pyrrolidinio)methyl-3-cephem-4-carboxylate]: the MIC in data set [1] was no more than 0.025 µg/mL; in data set [2] (setting [8]) it was 0.05 µg/mL (≈ 0.1 µM); in data set [3] (setting [9]), 0.05 µg/mL (≈ 0.1 µM); in data set [4] it was 0.8 µg/mL (≈ 1.6 µM); in data set [5], no more than 0.025 µg/mL; in data set [6], 0.8 µg/mL (≈ 1.6 µM).
